The source made the active and inactive calls.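 How the source made its calls: active means AC50 no more than tenfold above the top dose tested, or full inhibition at every dose with a flat fit (cut at about 19 µM in these data); inconclusive means flat curve fit with inhibition between 30% and 70%, or poor fit; inactive means AC50 more than tenfold above the top dose tested.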
Test system: HMLE_sh_eGFP viability, CellTiter-Glo luminescence, 72 h
Assay: viability loss of HMLE_sh_eGFP cells – cell-based, luminescence, counter-screen for HMLE_sh_ECad selective toxicity project, dose response (AID 463074);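 further: counterscreen control line to flag general toxicity for the HMLE_sh_ECad screen; potency for loss of viability as luminescence drops below DMSO wells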

## O=C(Nc1ccc(N2CCN(C(=O)c3cccs3)CC2)cc1)c1ccc([N+](=O)[O-])o1
  AC50: 1.87 µM

## CCCCCCC[C@@H](C/C=C/CCC(=O)N(C)C/C(=C/Cl)C/C(=C\C(=O)N1CC(OC)=CC1=O)OC)OC
  AC50: 5.38 µM

## Cc1nn(Cc2c(Cl)cccc2Cl)c(C)c1NC(=O)c1cn(-c2ccccc2)nc1-c1ccccc1
  AC50: 1.19 µM

## CCN(CC)c1ccc2cc(S(=O)(=O)c3ccc(Cl)cc3)c(=O)oc2c1
  AC50: 4.98 µM

## C=C(C(=O)c1ccccc1)C(CC(=O)c1ccccc1)c1ccccc1 (stereo unspecified)
  AC50: 3.6 µM

## c1ccc(-c2c(-c3ccccc3)n(Cc3ccco3)c3ncnc(NCCCn4ccnc4)c23)cc1
  AC50: 6.74 µM

## O=C1C=CC(=O)N1c1ccc(OC(F)F)cc1
  AC50: 11.9 µM

## O=C(Nc1cccc(Cl)c1)c1nc[nH]c1C(=O)NCCCNC(=O)c1[nH]cnc1C(=O)Nc1cccc(Cl)c1
  AC50: 5.33 µM

## Cc1cc(C)cc(N2C(=O)NC(=O)/C(=C/c3cccn3-c3ccc(Cl)cc3)C2=O)c1
  AC50: 2.84 µM

## CCCCCc1nc2c(c(=O)c3ccccc3n2C)c(=O)n1C1CCCCCC1
  AC50: 2.97 µM

## CCc1ccccc1Nc1nn2c(=O)c3ccc(C(=O)NCc4ccccn4)cc3nc2s1
  AC50: < 0.16 µM

## O=[N+]([O-])c1cc(C(F)(F)F)ccc1NCCNC(=S)Nc1ccc(Cl)cc1
  AC50: 5.24 µM

## COC(=O)c1cc(=O)n(Cc2cccs2)c(=Nc2ccc(F)cc2)s1
  AC50: 3.58 µM

## COc1cc(/C=N/N(c2ccccc2)c2ccccc2)ccc1O
  AC50: 6.34 µM

## C=C1C(=O)C=C[C@]2(C)C[C@@H]3OC(=O)[C@](C)(O)[C@H]3C[C@@H]12
  AC50: 9.76 µM

## Cc1ccc(C(=O)Nc2ncc(Cc3ccccc3)s2)o1
  AC50: 1 µM

## CC1CCCN(CCCNC(=O)c2cc3c(Cl)nc4ccccc4c3s2)C1 (stereo unspecified)
  AC50: 8.14 µM

## CC(C)(C)c1nc(N2CCN(C(=O)c3ccco3)CC2)c2nnn(Cc3ccccc3Cl)c2n1
  AC50: 8.78 µM

## CCN1C(=O)/C(=C\N2CCN(c3cccc(Cl)c3)CC2)SC1=S
  AC50: > 19.5 µM (inactive)

## O=C(Nc1ccc(C(F)(F)F)cc1)c1cccn(Cc2ccc3c(c2)OC(F)(F)O3)c1=O
  AC50: 4.91 µM

## COc1ccccc1/C=C/C1(C(=O)NC2CCCC2)CC(=O)N1c1ccc(F)cc1 (stereo unspecified)
  AC50: 10.1 µM

## O=C(Nc1ccc(Nc2ccccc2)cc1)c1ccccc1
  AC50: 13.5 µM

## COc1ccc(-c2cc(C(=O)N3CC4(C)CC3CC(C)(C)C4)no2)cc1 (stereo unspecified)
  AC50: 1.43 µM

## O=C(NCc1cccnc1)/C(=C/c1ccc(-c2cccc(Cl)c2)o1)S(=O)(=O)c1ccccc1
  AC50: 2.66 µM

## O=C(CCSc1nc2ccccc2s1)N/N=C/c1c(O)ccc2ccccc12
  AC50: 16.2 µM

## Cc1nc2ccc(Br)cn2c1C(=O)N/N=C\c1ccc(C(C)C)cc1
  AC50: 4.34 µM

## Cc1ccc(-c2nnc(N3CCC(C)CC3)c3ccccc23)cc1C
  AC50: 4.3 µM

## O=C(N/N=C/c1ccc(OC2CSC2)cc1)c1ccccc1
  AC50: 2.85 µM

## O=C(Nc1ccc(Cl)cc1)c1cc2c(cc1O)[nH]c1ccccc12
  AC50: 0.488 µM

## Cc1nc2ccccc2n1/N=C/c1ccc([N+](=O)[O-])o1
  AC50: 13.9 µM

## O=[N+]([O-])c1cc(S(=O)(=O)N2CCCCCC2)ccc1F
  AC50: 3.66 µM

## O=C1C=C(c2ccc(F)cc2OCc2ccccc2)C[C@@H](c2ccc(F)cc2)C1
  AC50: 2.25 µM

## Nc1[nH]n2c(=O)cc(-c3ccccc3)nc2c1N=Nc1ccccc1
  AC50: 13.3 µM

## C[C@@H]1CCC(=O)N(CC[C@H](Sc2ccc(Br)cc2)c2ccccc2)CC1
  AC50: 5.66 µM

## CCCCCCOc1ccc(/C(C)=N/NC2=NCCN2)cc1
  AC50: 3.69 µM

## Cc1ccccc1-c1cc(C(=O)Nc2sc(C(=O)OC(C)C)c(C)c2C#N)c2ccccc2n1
  AC50: 2.66 µM

## CCCCNC(=O)c1ccc(Cn2c(=S)[nH]c3c([nH]c4ccc(OC)cc43)c2=O)cc1
  AC50: 1.38 µM

## CC(C)(CN1CCN(Cc2ccccc2)CC1)NS(=O)(=O)c1ccccc1
  AC50: 8.78 µM

## Cc1cccc(-c2cc3nc4c(c(NCc5ccco5)n3n2)CCCC4)c1
  AC50: 7.25 µM

## Cc1nn(-c2ccc(F)cc2)c(Cl)c1/C=C1\C(=O)Nc2ccccc21
  AC50: 2.34 µM

## NC(=O)CC(NC(=O)c1ccc(Br)cc1)c1ccc(N2CCCCCC2)c([N+](=O)[O-])c1 (stereo unspecified)
  AC50: 19.6 µM

## COc1ccc2nc(NC(=O)c3ccc([N+](=O)[O-])o3)sc2c1
  AC50: 3.77 µM

## Cc1cc2ccccn2c1C(=O)c1ccc([N+](=O)[O-])o1
  AC50: 5.71 µM

## Cc1ccc(NC(=O)c2ccc(Cl)c(N3C(=O)C=CC3=O)c2)cc1
  AC50: 8.19 µM

## COc1cccc(-c2sc3ccc(OC)cc3c2-c2ccc(O)cc2)c1
  AC50: 3.7 µM

## C[C@@H]1CN([C@@H](C)CO)C(=O)Cc2cc(NC(=O)Nc3ccc(C(F)(F)F)cc3)ccc2O[C@@H]1CN(C)S(=O)(=O)c1ccc(Cl)cc1
  AC50: 1.78 µM

## Cc1onc(-c2c(Cl)cccc2Cl)c1C(=O)N/N=C(\N)COc1ccc(Cl)cc1
  AC50: 3.8 µM

## C/C(=N\Nc1cc(N2CCCCC2)nc(C)n1)c1ccc(Br)cc1
  AC50: 5.82 µM

## CCCCCc1cc(=O)oc2c(C(CCN3CCCCC3)c3ccc(OC)cc3)c(OC)cc(OC)c12 (stereo unspecified)
  AC50: 7.47 µM

## COc1ccc(OC)c(C(=O)CSc2nccc(-c3ccc(Br)cc3)n2)c1
  AC50: 1.31 µM

## CN(Cc1cnc2nc(N)nc(N)c2n1)c1ccc(C(=O)N[C@@H](CCC(=O)O)C(=O)O)cc1
  AC50: < 0.16 µM

## CC(=O)Nc1ccc(N=Cc2c(O)c(C(=O)Nc3ccccc3)cc3ccccc23)cc1
  AC50: 4.21 µM

## Cc1nn(-c2nc3ccccc3s2)c(C)c1Oc1ccccc1O
  AC50: 5.71 µM

## COc1ccc(-c2oc3ccc(N4CCOCC4)cc3c2C#CCO)cc1
  AC50: 10.4 µM

## CCCOc1ccc(/C=N/Nc2cc(N3CCOCC3)ncn2)c(O)c1
  AC50: 3.38 µM

## CCCCNc1c(-c2ccc(OC)c(SC3CCCCC3)c2)nc2cc(C)ccn12
  AC50: 5.29 µM

## Cc1cc(SCC(=O)N/N=C/c2ccc(O)cc2O)nc2ccccc12
  AC50: 4.75 µM

## COC(=O)c1sc(-c2ccc(C(C)(C)C)cc2)cc1NC(=O)/C=C/C(=O)O
  AC50: 4.28 µM

## C=C(C)[C@@H]1CC[C@]2(C(=O)O)CC[C@]3(C)[C@H](CC[C@@H]4[C@@]5(C)CC[C@H](O)C(C)(C)[C@@H]5CC[C@]43C)[C@@H]12
  AC50: 3.97 µM

## Cc1cccc(N/N=C/c2ccccc2O)c1
  AC50: 18.6 µM

## CCN1CCN(Cc2ccc(NC(=O)c3ccc(C)c(NC(=O)c4cc(-c5ccc(Br)cc5)n[nH]4)c3)cc2C(F)(F)F)CC1
  AC50: 11.6 µM

## COC(=O)c1ccc(COc2ccccc2/C=C(\C#N)C(=O)Nc2c(C)cccc2C)cc1
  AC50: 2.86 µM

## Cc1cc(F)ccc1S(=O)(=O)Nc1ccccc1C(=O)Nc1ccccc1-c1nc2ccccc2[nH]1
  AC50: 5.51 µM

## N#Cc1c(/N=C/N2CCCC2)oc(-c2ccccc2)c1-c1ccccc1
  AC50: 3.02 µM

## O=C(Nc1nccs1)c1ccc(COc2ccccc2Cl)o1
  AC50: 10.8 µM

## CCC1C=CC=CC[C@H](C)[C@@H](O)[C@](C)(O)C(=O)[C@@H](C)[C@H](O)[C@@H](C)C(=O)[C@H](C)[C@@H](O)[C@H](C)C=CC(=O)OC2[C@@H](C)C(CC1)OC1(CC[C@@H](C)C(C[C@H](C)O)O1)[C@@H]2C (stereo partly specified)
  AC50: 3.2 µM

## CCCCC(=O)Nc1nc(C)c(-c2csc(Nc3cc(OC)ccc3OC)n2)s1
  AC50: 2.27 µM

## CC(C)Cc1nc2oc3c(Cl)ncnc3c2c2c1CCC2
  AC50: 3.72 µM

## c1ccc2c(-c3ccc(OCCN4CCCCC4)cc3)c(-c3ccsc3)sc2c1
  AC50: 2.72 µM

## CCn1c(=O)c(C(=O)NCCc2ccccc2)c(O)c2ccccc21
  AC50: 5.62 µM

## CC(/C=C1\SC(=O)N(CC(=O)Nc2cccc(O)c2)C1=O)=C\c1ccccc1
  AC50: 13.6 µM
